The results in this text go back to publication PMC6296572 (Journal of Genetic Engineering & Biotechnology, 2017).

The structures appear in SMILES notation.

This test relates to laccase from Trichoderma harzianum strain HZN10 (free, purified). Briefly: ABTS oxidation, absorbance at […] nm. As to conditions: free enzyme; ABTS 0.2-2.4 mM; standard assay 0.1 M sodium phosphate pH 6, 25 °C. In kind it is biochemical.

For `CCn1c(=NN=c2sc3cc(S(=O)(=O)O)ccc3n2CC)sc2cc(S(=O)(=O)O)ccc21` [ABTS, 2,2′-azino-bis(3-ethylbenzothiazoline-6-sulfonic acid)], the Michaelis constant (Km) worked out at 500 µM.

For orientation: Km means the substrate concentration at which the rate is half of its maximum.
